The text below walks through data of US9938265B2, “1,3,4-thiadiazole compounds and their use in treating cancer” (AstraZeneca AB, priority 2015, dated 2018).

pIC50: −log10 of the molar value. Where two headings read alike, the source gives them in different places.

One experiment deals with GLS1 (Homo sapiens (Human), UniProt O94925). The experiment is described as follows: GLS Enzyme Potency Assay (Glutamate Oxidase/AmplexRed coupled assay). The experiment is classed as biochemical. From the text:
(§1) The following assays were used to measure the effects of the compounds described herein: a) GLS Enzyme Potency Assay; b) GLS Cell Potency Assay; c) GLS Cell Proliferation Assay. During the description of the assays, generally: • i. The following abbreviations have been used: CO2=Carbon dioxide; DMEM=Dulbecco's Modified Eagle Medium; DMSO=Dimethyl sulphoxide; EDTA=Ethylenediaminetetraacetic acid; EGTA=Ethylene glycol tetraacetic acid; FCS=Foetal calf serum; h=Hour(s); NBS=Non-binding surface; SDS=Sodium dodecyl sulphate; TRIS=Tris(Hydroxymethyl)aminomethane. • ii. IC50 values were calculated using a smart fitting model in Genedata.
Assay a): GLS Enzyme Potency Assay
A Glutamate Oxidase/AmplexRed coupled assay was used to measure the ability of compounds to bind to and inhibit the activity of GLS1 in vitro. […] GLS1 was diluted to 2× working concentration and incubated at room temperature to allow the tetrameric/dimeric forms to reach steady state. Assay measurements were performed in buffer comprising 50 mM TRIS pH 7.8, 100 mM NaPO4, pH 7.8, 0.001% v/v Tween20. Purified recombinant GLS1 protein was diluted in assay buffer to 12 nM and pre-incubated at room temperature for 30 minutes. […] DMSO concentration was maintained at 2% by back filling with DMSO solution. 3 μL of diluted GLS1 protein (12 nM) was then dispensed into each well using a BioRaptr automated dispenser (Beckman-Coulter) and incubated for 15 minutes at room temperature. 3 μL of 100 mM glutamine diluted in assay buffer was then added and the reaction incubated at room temperature for 60 minutes. […] An artefact version of the assay where the 6His tagged GLS protein and glutamine were replaced with assay buffer was also used to rule out non specific effects on the assay components.

Another experiment addresses cellular GLS activity (Homo sapiens (Human), UniProt O94925). The experiment is described as follows: GLS Cell Potency Assay (PC3 coupled assay measuring cellular glutamate depletion). It is filed as cell-based. Conditions: PC3 cells, 6 h incubation, glutamate depletion; read-out: Assay b) GLS cell MOA Mean IC50.
Text: as §1
Assay b): GLS Cell Potency Assay
Compounds were assessed for their potential to inhibit cellular GLS activity by use of a PC3 coupled assay measuring cellular glutamate depletion. […] DMSO concentration was maintained at 0.3% by back filling with DMSO solution. PC3 cells were grown in phenol free DMEM, 10% dialyzed FCS, 2 mM glutamine and following dispersal by trypsinisation were plated at 5.6×10^3 cells per well in 40 μl of growth medium directly into the 384 well assay plates containing dispensed compound. After incubation for 6 h at 37° C., 5% CO2 growth media was aspirated and cells lysed in 15 μl of buffer containing 10 mM TRIS pH7.4, 100 mM NaCl, 1 mM EDTA, 1 mM EGTA, 1 mM NaF, 20 mM Na4P2O7, 2 mM Na3VO4, 1% Triton X-100, 10% glycerol, 0.1% SDS and 0.5% deoxycholate.

A further experiment deals with NCI-H1703 cells. Kind of experiment: GLS Cell Proliferation Assay (NCI-H1703 cell proliferation). The experiment is classed as cell-based.
Text: as §1
Assay c): GLS Cell Proliferation Assay
The ability of compounds to inhibit cell growth was measured using a 384 well plate NCI-H1703 cell proliferation assay. NCI-H1703 cells were grown in phenol red free RPMI1640, 10% FCS and 2 mM glutamine and seeded at a density of 750 cells per well in 40 μl of growth medium into clear-bottom 384 well assay plates (Corning product code 3712) and incubated for 24 h at 37° C., 5% CO2. Test compounds were prepared by dilution in 100% DMSO to give the correct dose range for 12 point concentration response and an appropriate volume (5-120 nl) dispensed directly into the assay plates containing plated cells. DMSO concentration was maintained at 0.3% by back filling with DMSO solution. Plates were incubated for 5 days at 37° C., 5% CO2, Sytox Green and Saponin added to final concentration of 2 μM and 0.25% respectively and incubated for 6 h prior to analysis. Plates were read on an Acumen eX3 (TTP Labtech) using 488 nm excitation and FITC filter set (500-530 nm) for emission. IC50 values were calculated by curve fitting to max inhibition of day zero growth using GeneData software analysis.

Where [1] appears, read: 6His tagged GLS protein (amino acids 63-669), glutamine substrate; read-out: Assay a) enz IC50.
[2] abbreviates: NCI-H1703 cells, 5 days; read-out: Assay c) Prolif Mean IC50.
Where [3] appears, read: Homo sapiens, NCI-H1703, 120 h, NCI-H1703 cells, 5 days; read-out: Assay c) Prolif Mean IC50.

Chain of GLS1 (O94925 63-669): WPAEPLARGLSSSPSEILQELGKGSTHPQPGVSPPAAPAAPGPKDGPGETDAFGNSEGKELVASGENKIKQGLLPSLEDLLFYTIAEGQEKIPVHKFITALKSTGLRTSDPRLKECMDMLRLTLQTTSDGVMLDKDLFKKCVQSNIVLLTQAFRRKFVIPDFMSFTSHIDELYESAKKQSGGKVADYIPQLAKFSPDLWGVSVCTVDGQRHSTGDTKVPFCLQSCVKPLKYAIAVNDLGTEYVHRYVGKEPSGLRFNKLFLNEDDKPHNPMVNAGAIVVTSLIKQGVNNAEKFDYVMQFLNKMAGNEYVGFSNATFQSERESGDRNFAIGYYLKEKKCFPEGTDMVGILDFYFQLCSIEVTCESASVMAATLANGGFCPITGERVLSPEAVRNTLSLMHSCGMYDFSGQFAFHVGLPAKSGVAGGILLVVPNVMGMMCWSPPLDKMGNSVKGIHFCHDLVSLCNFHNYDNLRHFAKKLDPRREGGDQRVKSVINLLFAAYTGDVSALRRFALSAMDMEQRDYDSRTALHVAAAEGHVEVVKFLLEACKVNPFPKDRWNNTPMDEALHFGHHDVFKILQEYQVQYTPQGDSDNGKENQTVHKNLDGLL
Chain of cellular GLS activity (O94925 73-669): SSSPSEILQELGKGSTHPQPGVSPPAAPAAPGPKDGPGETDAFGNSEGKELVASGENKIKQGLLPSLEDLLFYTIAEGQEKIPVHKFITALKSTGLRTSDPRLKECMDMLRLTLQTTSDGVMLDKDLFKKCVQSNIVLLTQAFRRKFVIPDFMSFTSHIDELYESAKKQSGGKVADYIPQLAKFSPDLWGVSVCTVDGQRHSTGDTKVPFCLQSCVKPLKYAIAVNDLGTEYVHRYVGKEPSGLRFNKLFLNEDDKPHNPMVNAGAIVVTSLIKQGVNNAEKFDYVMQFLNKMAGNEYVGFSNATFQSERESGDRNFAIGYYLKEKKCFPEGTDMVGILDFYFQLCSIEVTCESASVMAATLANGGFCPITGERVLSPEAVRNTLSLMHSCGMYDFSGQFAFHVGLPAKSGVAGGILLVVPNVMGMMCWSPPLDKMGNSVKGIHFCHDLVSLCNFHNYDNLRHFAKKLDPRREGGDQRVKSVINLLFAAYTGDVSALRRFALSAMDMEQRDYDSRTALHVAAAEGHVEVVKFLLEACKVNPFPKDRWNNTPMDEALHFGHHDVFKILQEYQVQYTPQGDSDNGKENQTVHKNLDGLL

The pIC50 is the negative decadic logarithm of the IC50, by convention in mol/L. With `CCOC(C(=O)Nc1nnc(N[C@@H]2CCN(c3ccc(F)nn3)C2)s1)c1ccc(F)cc1` (single isomer, unassigned) [Example 26], the figures for the pIC50 at GLS1 (setting [1]), on cellular GLS activity and in the experiment with NCI-H1703 cells (setting [2]) were 7.02, 8.67 and 7.66, respectively.
In the case of `CO[C@H](C(=O)Nc1nnc(N[C@@H]2CCN(c3cc(C)cnn3)C2)s1)c1ccccc1` [Example 13, (2S)-2-Methoxy-N-[5-[[(3R)-1-(5-methylpyridazin-3-yl)pyrrolidin-3-yl]amino]-1,3,4-thiadiazol-2-yl]-2-phenyl-acetamide], the pIC50 at GLS1 (setting [1]) is 7.23; at cellular GLS activity it was 9.18; in the experiment on NCI-H1703 cells (setting [3]), 8.07.
Regarding `COC(C(=O)Nc1nnc(N[C@@H]2CCN(c3ccc(F)nn3)C2)s1)c1ccc(F)cc1` (single isomer, unassigned) [Example 20], the pIC50 at GLS1 (setting [1]) was 6.49; on cellular GLS activity it was 7.10; in the experiment with NCI-H1703 cells (setting [2]), 5.90.
As for `COC(C(=O)Nc1nnc(N[C@@H]2CCN(c3ccc(F)nn3)C2)s1)c1ccc(F)cc1` (single isomer, unassigned) [Example 19], the negative-log IC50 (pIC50) on GLS1 (setting [1]) is 7.25; on cellular GLS activity, 8.33; in the experiment with NCI-H1703 cells (setting [2]), 7.14.
In the same order, the values of `CO[C@H](C(=O)Nc1nnc(N[C@@H]2CCN(c3ccc(C)nn3)C2)s1)c1cccc(OC(F)(F)F)c1` (single isomer, unassigned) [Example 7(a)] are 7.02, 9.25 and 8.51.
In the same order, the values of `COC(C(=O)Nc1nnc(N[C@@H]2CCN(c3ccc(F)nn3)C2)s1)c1cccc(OC(F)(F)F)c1` (single isomer, unassigned) [Example 18] are 7.19, 8.31 and 7.77.
On to `COc1cc(C(OC)C(=O)Nc2nnc(N[C@@H]3CCN(c4ccc(F)nn4)C3)s2)ccc1F` (single isomer, unassigned) [Example 24], for which the negative logarithm of the IC50 (pIC50) on GLS1 (setting [1]) was 7.15; on cellular GLS activity it was 9.00; with NCI-H1703 cells (setting [2]), 7.94.
In the same order, the values of `CCO[C@H](C(=O)Nc1nnc(N[C@@H]2CCN(c3ccc(C)nn3)C2)s1)c1cccc(OC)c1` (single isomer, unassigned) [Example 4(a)] are 7.10, 9.34 and 8.18.
In the same order, the values of `COc1ccc([C@H](OC)C(=O)Nc2nnc(N[C@@H]3CCN(c4cc(C)cnn4)C3)s2)cc1` (single isomer, unassigned) [Example 33(a)] are 6.83, 7.72 and 7.72.
In the same order, the values of `CO[C@H](C(=O)Nc1nnc(N[C@@H]2CCN(c3ccc(C)nn3)C2)s1)c1ccc(F)cc1` (single isomer, unassigned) [Example 5(a)] are 6.81, 8.56 and 7.36.
On to `COc1cccc([C@H](OC)C(=O)Nc2nnc(N[C@@H]3CCN(c4ccc(C)nn4)C3)s2)c1` (single isomer, unassigned) [Example 1(b)], for which the pIC50 at GLS1 (read-out: Assay a) enz IC50) is 6.39; at cellular GLS activity it was 6.86; in the experiment with NCI-H1703 cells (setting [2]) it was 6.34.
Turning to `CO[C@H](C(=O)Nc1nnc(N[C@@H]2CCN(c3ccc(F)nn3)C2)s1)c1ccccc1` [Example 2, (2S)-N-[5-[[(3R)-1-(6-Fluoropyridazin-3-yl)pyrrolidin-3-yl]amino]-1,3,4-thiadiazol-2-yl]-2-methoxy-2-phenyl-acetamide], the pIC50 at GLS1 (setting [1]) was 7.52; at cellular GLS activity it was 9.02; in the experiment on NCI-H1703 cells (setting [3]) it was 7.78.
For the compound `CO[C@H](C(=O)Nc1nnc(N[C@@H]2CCN(c3ccc(C)nn3)C2)s1)c1cccc(OC(F)F)c1` (single isomer, unassigned) [8(b)], the pIC50 at GLS1 (setting [1]) is 6.19; on cellular GLS activity, 7.66; in the experiment on NCI-H1703 cells (setting [2]) it was 6.93.
In the same order, the values of `CCOC(C(=O)Nc1nnc(N[C@@H]2CCN(c3ccc(C)nn3)C2)s1)c1ccc(OC)cc1` (single isomer, unassigned) [Example 16] are 7.09, 8.56 and 7.26.
In the same order, the values of `CCOC(C(=O)Nc1nnc(N[C@@H]2CCN(c3ccc(C)nn3)C2)s1)c1ccc(F)cc1` (single isomer, unassigned) [Example 27] are 5.62, 7.14 and 5.91.
